Here are results for one compound from US20040214237A1, “DNA encoding SNORF138 and uses thereof” (Synaptic Pharmaceutical Corporation, priority 2002, published 2004).

In assay [1] the test system is CFTR. Kind of assay: CFTR currents in Xenopus oocytes expressing CFTR alone (control without receptor). It counts as cell-based. Set-up: dose or concentration left out as unconfirmed. The settings on record: betamethasone valerate, bullet application, n=4. The procedure: In the present invention, oocytes are harvested from Xenopus laevis as previously described (Quick and Lester, 1994; Smith et al., 1997). Oocytes were injected with a cocktail of T3-driven hSN138 cDNA, T3-RNA polymerase and dNTP with or without T3-driven CFTR cDNA directly into the cytoplasm as previously described (Geib et al., 2001). After 2 days of incubation at 15° C., dual electrode voltage clamp was performed using 3 M KCl-filled glass microelectrodes with resistances of 1-2 MΩ. Unless otherwise specified, oocytes were voltage-clamped at a holding potential of −80 mV. During recordings, oocytes were bathed in continuously flowing (1-3 ml/min) medium containing 96 mM NaCl, 2 mM KCl, 1.8 mM CaCl2, and 5 mM HEPES, pH 7.5 (ND96 Buffer). Drugs were applied by local perfusion from a […] glass capillary tube at a distance of 0.5 mm from the oocyte. Heterologous expression of GPCRs in Xenopus oocytes has been widely used to determine the identity of signaling pathways activated by agonist stimulation. CFTR channel activity is heavily regulated by the cytosolic levels of cyclic AMP which can be increased by activation of GS-coupled adenylyl cyclase (AC). Therefore, activation of GS-coupled AC pathway is assayed by applying test compound in ND96 solution to oocytes and observing the changes of inward CFTR currents at a holding potential of −80 mV.

The target in assay [2] is T1, hSN138 (human SNORF138 receptor) (Homo sapiens, UniProt Q8TDU6).
T1 construct: expressed in transfected cells; host or cells: Xenopus laevis oocytes (cytoplasmic injection of T3-driven cDNA with T3 RNA polymerase)
T1 sequence (Q8TDU6 1-330): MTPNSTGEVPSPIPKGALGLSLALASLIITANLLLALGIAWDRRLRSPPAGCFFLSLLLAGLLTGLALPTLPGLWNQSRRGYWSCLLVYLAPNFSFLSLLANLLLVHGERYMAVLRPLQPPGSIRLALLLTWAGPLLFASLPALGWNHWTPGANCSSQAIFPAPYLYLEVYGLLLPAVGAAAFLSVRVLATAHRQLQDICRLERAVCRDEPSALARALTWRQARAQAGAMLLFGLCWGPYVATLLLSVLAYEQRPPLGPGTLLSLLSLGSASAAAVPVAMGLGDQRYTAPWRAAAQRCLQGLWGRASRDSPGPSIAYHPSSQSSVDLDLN
Kind of assay: Activation of CFTR currents in Xenopus oocytes expressing both hSN138 and CFTR (dual electrode voltage clamp). The class given is cell-based. Set-up: dose or concentration left out as unconfirmed. The settings on record: betamethasone valerate, bullet application, holding potential -80 mV, n=8.
Experimental: Oocytes were injected with a cocktail of T3-driven hSN138 cDNA, T3-RNA polymerase and dNTP with or without T3-driven CFTR cDNA directly into the cytoplasm as previously described (Geib et al., 2001). After 2 days of incubation at 15° C., dual electrode voltage clamp was performed using 3 M KCl-filled glass microelectrodes with resistances of 1-2 MΩ. Unless otherwise specified, oocytes were voltage-clamped at a holding potential of −80 mV. During recordings, oocytes were bathed in continuously flowing (1-3 ml/min) medium containing 96 mM NaCl, 2 mM KCl, 1.8 mM CaCl2, and 5 mM HEPES, pH 7.5 (ND96 Buffer). Drugs were applied by local perfusion from a 10 ml glass capillary tube at a distance of 0.5 mm from the oocyte. […] CFTR channel activity is heavily regulated by the cytosolic levels of cyclic AMP which can be increased by activation of GS-coupled adenylyl cyclase (AC). Therefore, activation of GS-coupled AC pathway is assayed by applying test compound in ND96 solution to oocytes and observing the changes of inward CFTR currents at a holding potential of −80 mV.

For `CCCCC(=O)O[C@]1(C(=O)CO)[C@@H](C)C[C@H]2[C@@H]3CCC4=CC(=O)C=C[C@]4(C)[C@@]3(F)[C@@H](O)C[C@@]21C` [betamethasone valerate, fluoro-11b,17,21-trihydroxy-16b-methylpregna-1,4-diene-3,20-dione 17-valerate], in assay [1], the “changes in CFTR currents” value is “no significant changes”. Also, the “increase of CFTR currents” value in assay [2] came to 9.2±1.9 nA.
